Patent publication US11339140B2, “Compositions and methods comprising substituted 2-aminoimidazoles” (Curza Global, LLC, priority 2017, dated 2022)
≈ marks a conversion by molar mass, not a printed value.

Assays:
[1] = system: Candida albicans; settings: cited from earlier work
[2] = system: Mycobacterium tuberculosis; settings: cited from earlier work
[3] = system: breast cancer; assay: cancer-selective cell death with Zn2+; type: cell-based; settings: caspase-independent mechanism
[4] = system: primary metastatic cells derived from breast cancer patients; assay: activity against primary metastatic cells derived from breast cancer patients; type: cell-based, human; settings: patients treated with multiple frontline chemotherapeutics
[5] = system: mouse mammary tumor model; assay: mouse mammary tumor model; type: in vivo

Row | SMILES | MIC100 against Candida albicans [1] [µM] | IC50 against Mycobacterium tuberculosis [2] [µg/mL] | synergy with Zn2+ in inducing cancer-selective cell death [3] | efficacy against primary metastatic cells from breast cancer patients [4] | in vivo efficacy [5]
1 | COc1ccc(Cc2nc(NC3=NC(=O)N(C)C3=O)n(C)c2Cc2ccc(O)cc2)cc1 [Naamidine A] | 0.78 (≈ 0.338 µg/mL) | 0.41 (≈ 0.946 µM) |  |  | 
2 | COc1ccc(-c2c(Cc3ccccc3)[nH]/c(=N\C(=O)c3ccccc3F)n2C)cc1 [ZNA] |  |  | synergizes strongly with Zn^2+ to induce cancer-selective cell death | effective | in vivo efficacy was established
